`CC(=O)/C=C/C1C(C)=CCCC1(C)C` (centres undefined) yielded a logP of 3.85.
In turn, `CC1CCC(C(C)C)C(O)C1` (centres undefined) registered a lipophilicity (logP) of 3.4.
Next, `C=C(C)[C@@H]1CC=C(C)C(=O)C1`: 2.71; `CC1=CCC2C(C1)C2(C)C` (centres undefined): 4.38; `CC12CCC(C1)C(C)(C)C2=O` (centres undefined): 3.52.
The figure for `C=C(C)[C@@H]1CC=C(C=O)CC1` is 3.13; for `CC1(C)[C@@H]2CC[C@@]1(C)[C@H](O)C2` it is 3.24.
For `CC(C)[C@@H]1CC[C@@H](C)CC1=O`, the logP was determined as 3.05.
The figure for `CC1=CCC(O)(C(C)C)CC1` (centres undefined) is 3.26; for `C=C1CCC2CC1C2(C)C` (centres undefined) it is 4.16; for `CC(=O)OC(C)(C)C1CC=C(C)CC1` (centres undefined) it is 3.96.
Regarding `CC(C)=CCC/C(C)=C/CO`, the log partition coefficient (logP) turned out to be 3.56.
In turn, `C=C(C)C1CCC(C)C(O)C1` (centres undefined) yielded a logP of 3.21.
`CC1=CC(=O)C(C(C)C)CC1` (centres undefined) yielded a lipophilicity (logP) of 2.85.
In turn, `CC1=CCC2C(C1=O)C2(C)C` (centres undefined) gave a logP of 2.42.
For `CC1=CC(O)C2CC1C2(C)C` (centres undefined), the lipophilicity (logP) was determined as 3.16.
`CC1(C)[C@H]2CC[C@](C)(C2)[C@H]1O` returned a lipophilicity (logP) of 3.17.
The figure for `CC(C)=C1CC[C@@H](C)CC1=O` is 3.08.
The figure for `CC1=CC(=O)[C@H]2C[C@@H]1C2(C)C` is 2.23.
In turn, `CC(=O)OC/C=C(\C)CCC=C(C)C` gave a logP of 4.04.
For `Cc1ccc(C(C)C)cc1O`, the lipophilicity (logP) was 3.49.
The figure for `C=C(C)C1CCC(C)C(=O)C1` (centres undefined) is 2.85.
The figure for `C=C(C)C1CC=C(CO)CC1` (centres undefined) is 3.17; for `CC1=CCC(C(C)(C)O)C[C@@H]1O` (some centres undefined) it is 1.81; for `C=C(C)C1CCC2(C)OC2C1` (centres undefined) it is 3.2.
`C=CC1(C)CCC(C(C)(C)O)O1` (centres undefined): the log partition coefficient (logP) was found to be 2.43.
The figure for `CC=Cc1ccc(O)c(OC)c1` is 3.04; for `CC1=CC2C(CC1)C2(C)C` (centres undefined) it is 4.44; for `C=C(C)C1CC=C(C)C(O)C1` (centres undefined) it is 3.12.
Compound `CC12CCC(CC1)C(C)(C)O2` registered a logP of 2.74.
For the compound `CC1(C)C2CC=C(CO)C1C2` (centres undefined), the lipophilicity (logP) turned out to be 3.22.
The compound `CC(=O)OC1CC(C)CCC1C(C)C` (racemic) came in with a lipophilicity (logP) of 4.
Turning to `CC(C)=CCC[C@@H](C)CC=O`, the logP is 3.83.
The figure for `C=CC(C)(CCC=C(C)C)OC(C)=O` (centres undefined) is 3.93; for `CC1=CC=C(C(C)C)CC1` it is 4.25.
In the case of `CC(C)C12CCC(C)(CC1)O2`, the logP was found to be 2.97.
Next, `CC1(C)C2CC=C(C=O)C1C2` (centres undefined): 2.98; `C=C1[C@H]2CC[C@H](C2)C1(C)C`: 4.22; `CC1(C)C2CCC(CN)C1C2` (centres undefined): 2.05.

By logP is commonly meant a log measure of how a compound divides between an organic and an aqueous phase. Lower therefore signals lower lipophilicity.

For the origin of these results see the OPERA property sets (Mansouri et al. 2018).
